In general, pKi refers to the Ki on a negative log10 scale, so that one unit is a factor of ten. The term Emax denotes the size of the effect at its maximum, as opposed to the concentration needed.

We go through 6 molecules from patent US6825209B2, “Compounds having unique CB1 receptor binding selectivity and methods for their production and use” (Research Triangle Institute, priority 2002, dated 2004).

The subject of one assay is CB1 and CB2 receptors. To be noted: literature, cited from earlier work.
Another assay concerns the target T1, CB1 receptor (Rattus norvegicus, UniProt P20272).
T1 construct: Whole rat brains or dissected regions from live CD rats; tissue Charles River or Pel-Freez Biologicals; host or cells: whole rat brain (CD rats), P2 membrane
The assay can be described thus: Radioligand displacement in whole rat brain (CB1) membrane preparations. Type of assay: binding. The note with it: Tables 1 and 2. The gist of the method: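 Washed P2 membranes from whole rat brain (ca. 0.2 mg/mL) in 50 mM Tris.HCl, 1 mM EDTA, 3 mM MgCl2, pH 7.4 were incubated with radioligand and compound for 1 h at 30 °C, then filtered. IC50 values came from one- or two-site nonlinear fits and were converted to Ki by Cheng-Prusoff. Duplicates were run across 3–6 experiments.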

In the next assay the target is T2, human CB2 receptor (Homo sapiens, UniProt P34972).
T2 construct: expressed in transfected cells; host or cells: CHO-K1
T2 sequence (P34972 whole entry): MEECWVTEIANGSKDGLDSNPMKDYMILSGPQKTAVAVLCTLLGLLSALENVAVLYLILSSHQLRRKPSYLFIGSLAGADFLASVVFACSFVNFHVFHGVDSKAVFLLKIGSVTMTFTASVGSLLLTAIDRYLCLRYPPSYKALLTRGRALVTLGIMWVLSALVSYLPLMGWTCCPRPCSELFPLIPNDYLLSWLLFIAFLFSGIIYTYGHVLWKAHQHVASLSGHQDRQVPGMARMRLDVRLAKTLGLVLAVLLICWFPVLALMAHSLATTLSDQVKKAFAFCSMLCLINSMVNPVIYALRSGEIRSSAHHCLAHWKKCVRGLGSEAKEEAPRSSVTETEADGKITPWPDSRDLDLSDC
The experiment in a line: Displacement of 3H-CP55,940 in human CB2 receptor-transfected cells (CHO-K1). The note with it: radioligand 3H-CP55940, Tables 6 and 7. In kind it is binding. As to the method: (§1) Human CB2 receptor affinity. The relative selectivity of the analogs for CB1 versus CB2 receptors varied modestly regardless of the structural modifications examined to date.
Methods—binding assay in transfected cell lines. The methods used for performing binding assays in transfected cells expressing human CB1 or CB2 receptors are those used above. The CB1 receptor involved a HEK-293 expression system whereas the CB2 receptor was expressed in CHO-K1 cells. […] The incubations and separations were then performed as described above for rat brain membrane preparations.
Data analysis. Saturation and displacement data were analyzed by unweighted nonlinear regression of receptor binding data. For displacement studies, curve-fitting and IC50 calculation were done with GraphPad Prism (GraphPad Software, Inc., San Diego, Calif.), which fits the data to one and two-site models and compares the two fits statistically. A similar approach was used for the analysis of isotherm data for calculation of Kd's. A two-site fit was accepted only if it was statistically significant (p<0.05) and the following results were not observed:
IC50 values were then converted to Ki values by reported methods (Cheng and Prusoff, 1973). The statistical evaluation of curve-fitting data allowed for a non-arbitrary conclusion based on the displacement data.
(In a radioligand displacement assay an active substance lowers the binding of a labelled ligand.)

Assay [1] has as its target T3, G-protein-linked cannabinoid receptors (Rattus norvegicus, UniProt P20272).
T3 construct: tissue Charles River or Pel-Freez Biologicals; host or cells: whole rat brain crude membrane homogenate
The experiment in a line: GTP-γ-[35S] binding in whole rat brain. The note with it: for Emax: read-out: Emax, GTP-γ-[35S] in Whole Rat Brain. Type of assay: biochemical. An excerpt: Cannabinoid receptor-mediated alteration in GTP-γ-[^35S] binding.
(§2) Introduction. The purpose of this assay was to characterize the functional activity of lead compounds identified by the radioligand competition binding assays described above. Data from the GTP-γ-[^35S] binding assay was used to determine if a compound was an agonist, antagonist or inverse agonist at G-protein-linked cannabinoid receptors. Agonist binding to a G-protein-linked receptor results in an increased affinity of the G-protein α-subunit for GTP relative to GDP. Eventually, an active αGTP complex forms to complete the stimulus-effector coupling. The α-subunit has intrinsic GTPase activity which generates a free α-subunit which can recombine with the β- and γ-subunits readying the G-protein for another signal transduction cycle. In the current assay, GTP-γ-[^35S] cannot be hydrolyzed by the α-subunit. Thus, the amount of bound GTP-γ-[^35S] is a marker for G-protein activation. In this assay, an agonist increases basal GTP-γ-[^35S] binding, an inverse agonist decreases basal binding and basal binding would be unaffected by an antagonist.
Experimental Design. The specific binding of GTP-γ-[^35S], in the absence of test compound, was termed “basal” activity. Test compounds were characterized as agonist, antagonist, or inverse agonist based on their effect on basal activity. […] The concentrations spanned two orders of magnitude because affinity may not be related to efficacy. […] Effects of the test compounds are reported as the percent change from basal. More thorough dose-response analysis may be run to determine, for example, if a compound is a full or partial agonist.
Methods. […] In a final volume of 0.5 mL, each assay tube contained: 0.02 mg crude membrane homogenate (0.1 mL), 200 μM GDP (0.05 mL; to reduce basal G-protein activity), 0.1 nM GTP-γ-[^35S] (0.05 mL) and several concentrations of test compound (0.05 mL) or an equivalent volume of vehicle (used for determination of total binding). Nonspecific binding was determined in the presence of 100 μM unlabeled GTP-γ-S (0.05 mL). Duplicate samples were incubated for 1 h at 30° C. Since this assay is amenable for use with high throughput screening methods, the binding assays were run using a 96-well plate format. Specific binding was calculated as total binding-nonspecific binding.
In general terms: Binding of GTPγS marks nucleotide exchange on a G protein.

In a further assay the test system is CB1 versus CB2 receptors. The experiment in a line: Relative selectivity of the analogs for CB1 versus CB2 receptors. To be noted: CB1 versus CB2 binding, Tables 1, 6 and 7.
Excerpt: as §1

The next assay deals with T4, human CB1 receptor (Homo sapiens, UniProt P21554).
T4 construct: expressed in transfected cells; host or cells: HEK-293
T4 sequence (P21554 whole entry): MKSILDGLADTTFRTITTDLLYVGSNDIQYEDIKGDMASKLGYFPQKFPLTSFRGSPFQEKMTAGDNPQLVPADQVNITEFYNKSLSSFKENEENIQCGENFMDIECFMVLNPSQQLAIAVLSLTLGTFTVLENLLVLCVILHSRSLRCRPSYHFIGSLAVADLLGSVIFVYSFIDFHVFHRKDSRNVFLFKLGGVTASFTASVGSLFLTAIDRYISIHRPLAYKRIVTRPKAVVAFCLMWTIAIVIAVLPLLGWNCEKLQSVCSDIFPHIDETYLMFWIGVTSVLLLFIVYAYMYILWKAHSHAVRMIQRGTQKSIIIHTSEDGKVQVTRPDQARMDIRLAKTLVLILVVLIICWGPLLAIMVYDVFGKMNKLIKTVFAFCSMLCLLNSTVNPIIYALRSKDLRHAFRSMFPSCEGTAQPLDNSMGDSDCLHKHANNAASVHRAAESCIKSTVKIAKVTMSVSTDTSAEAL
The experiment in a line: Radioligand displacement in human CB1 receptor-transfected cells (HEK-293). Type of assay: binding. The gist of the method:
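Radioligand displacement was run on HEK-293 cells expressing human CB1, with incubation and separation as for rat brain membranes. IC50 values came from one- or two-site nonlinear regression and were converted to Ki by Cheng-Prusoff.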

The target of assay [2] is T5, CB1 (human) clone receptors (Homo sapiens, UniProt P21554).
T5 construct: expressed in transfected cells
T5 sequence (P21554 whole entry): as above
The experiment in a line: GTP-γ-[35S] binding in CB1 (human) clone receptors. In kind it is biochemical. The note with it: assay run in CB1 (human) clone receptors.
Excerpt: Cannabinoid receptor-mediated alteration in GTP-γ-[^35S] binding. In addition to assessing CB1 and CB2 receptor affinities, all of the compounds have been screened in the GTP-γ-[^35S] assay to begin characterization of the compounds as agonists, partial agonists, antagonists or inverse agonists.
as §2, with “In the current assay, GTP-γ-[^35S] cannot be hydrolyzed by the α-subunit. Thus, the amount of bound GTP-γ-[^35S] is a marker for G-protein activation. In this assay, an agonist increases basal GTP-γ-[^35S] binding, an inverse agonist decreases basal binding and basal binding would be unaffected by an antagonist.” left out
Methods. Binding was determined using membrane homogenates from whole brain The assays were conducted as previously described (Sim et al. 1996) on brain tissue prepared as described above. […] Nonspecific binding was determined in the presence of 100 μM unlabeled GTP-γ-S (0.05 mL). […] Specific binding was calculated as total binding-nonspecific binding.

Where [3] appears, read: read-out: Ki, displacement of 3H-CP55940, whole rat brain membranes, radioligand 3H-CP55940.
Setting [4] is: read-out: Ki, displacement of 3H-SR141716A, whole rat brain membranes, radioligand 3H-SR141716A.
Where [5] appears, read: whole rat brain membranes, radioligand 3H-CP55940.
[6] abbreviates: whole rat brain membranes, radioligand 3H-SR141716A.
[7] abbreviates: read-out: Ki, displacement of 3H-CP55940, human CB2 transfected cells.
The mark [8] stands for this setting: Ki, displacement of 3H-CP55940, whole rat brain membranes, radioligand 3H-CP55940.
[9] abbreviates: Ki, displacement of 3H-SR141716A, whole rat brain membranes, radioligand 3H-SR141716A.
Setting [10] is: Ki, displacement of 3H-WIN55212-2, whole rat brain membranes, radioligand 3H-WIN55212-2.
The mark [11] stands for this setting: whole rat brain membranes, radioligand 3H-WIN55212-2.
[12] abbreviates: Ki, displacement of 3H-SR141716A.
[13] abbreviates: Ki, displacement of 3H-WIN55212-2.
Where [14] appears, read: Ki, displacement of 3H-CP55940, human CB2 transfected cells.

pEC50, pKi: −log10 of the molar value. Read-outs that look alike come from different tables or passages of the source. Marks after values point to notes of the source that are not given here.

T3 sequence (P20272 whole entry): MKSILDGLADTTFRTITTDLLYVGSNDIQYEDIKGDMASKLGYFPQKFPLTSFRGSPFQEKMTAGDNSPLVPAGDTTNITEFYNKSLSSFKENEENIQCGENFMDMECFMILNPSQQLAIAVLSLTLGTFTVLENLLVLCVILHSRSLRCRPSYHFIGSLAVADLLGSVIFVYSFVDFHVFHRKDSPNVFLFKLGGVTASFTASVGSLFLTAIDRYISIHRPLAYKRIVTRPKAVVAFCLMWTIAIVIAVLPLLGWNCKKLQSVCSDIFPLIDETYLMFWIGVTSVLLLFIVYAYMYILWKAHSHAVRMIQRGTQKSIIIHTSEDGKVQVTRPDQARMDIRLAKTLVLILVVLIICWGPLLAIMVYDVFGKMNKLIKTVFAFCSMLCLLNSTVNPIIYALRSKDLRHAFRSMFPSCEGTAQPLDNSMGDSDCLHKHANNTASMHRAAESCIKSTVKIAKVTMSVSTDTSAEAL
T1 sequence (P20272 whole entry): as above

Regarding `CCCCCCC(C)(C)c1ccc([C@@H]2C[C@H](O)CC[C@H]2CCCO)c(O)c1` [CP55,940], the “affinity at CB1 and CB2 receptor sites” value in the assay with CB1 and CB2 receptors is reported as “approximately equal affinity”.
Regarding `Cc1c(C(=O)NCCO)nn(-c2ccc(Cl)cc2Cl)c1-c1ccc(Cl)cc1` [MF9725-93-31], the pKi at CB1 receptor (setting [3]) is 6.41; on CB1 receptor (setting [4]) it was 6.46; at human CB2 receptor (setting [7]), 5.37. The “Max. Disp. %, 3H-CP55940” value at CB1 receptor (setting [5]) came out at 73.2%; on human CB2 receptor (human CB2 transfected cells), 33.3%. Also, at CB1 receptor (setting [6]), the “Max. Disp. %, 3H-SR141716A” value is listed as 85.5%. Further, in assay [1] (whole rat brain membranes, effects reported as percent change from basal), the Emax was -76.5%. Besides, in assay [1] (whole rat brain membranes, value above highest concentration tested (footnote), read-out: EC50, GTP-γ-[35S] in Whole Rat Brain, value is above highest concentration on displacement curve), the pEC50 was at most 2.78. Besides, the “CB1 selectivity (CB1 versus CB2)” value in the assay on CB1 versus CB2 receptors amounted to 10 fold.
On to `CCCCCCCCNC(=O)c1nn(-c2ccc(Cl)cc2Cl)c(-c2ccc(Cl)cc2)c1C` [MF9879-164-28], for which the negative-log Ki (pKi) on CB1 receptor (setting [8]) was 6.87; at CB1 receptor (setting [9]) it was 7.43; on CB1 receptor (setting [10]), 7.44; on human CB1 receptor (Ki, displacement of 3H-CP55940), 6.54; on human CB1 receptor (setting [12]) it was 7.35; on human CB1 receptor (setting [13]), 6.57. The pKi at human CB2 receptor (setting [14]) is 4.01. Besides, the “Max. Disp. %, 3H-CP55940” value at CB1 receptor (setting [5]) is 80.2%; at human CB1 receptor, 70.6%; on human CB2 receptor (human CB2 transfected cells), 45.3%. Further, the “Max. Disp. %, 3H-SR141716A” value on CB1 receptor (setting [6]) is reported as 75.2%; on human CB1 receptor, 67.8%. Further, the “Max. Disp. %, 3H-WIN55212-2” value at CB1 receptor (setting [11]) turned out to be 68.4%; at human CB1 receptor, 35.2%. This molecule gave a pEC50 in assay [1] of at most 3.17. Besides, the Emax in assay [1] was -21.3%.
`CCCCCCCCCNC(=O)c1nn(-c2ccc(Cl)cc2Cl)c(-c2ccc(Cl)cc2)c1C` [MF10110-10-21]: the pKi is 6.48 at CB1 receptor (setting [8]); 7.05 on CB1 receptor (setting [9]); 7.17 at CB1 receptor (setting [10]); 6.51 on human CB1 receptor (Ki, displacement of 3H-CP55940); 7.25 on human CB1 receptor (setting [12]); 5.45 at human CB1 receptor (setting [13]). At human CB2 receptor (setting [14]), this molecule gave a pKi of 4.64. In addition, the “Max. Disp. %, 3H-CP55940” value is recorded as 79.5% on CB1 receptor (setting [5]), 68.8% at human CB1 receptor and 53.8% at human CB2 receptor (human CB2 transfected cells). Further, the “Max. Disp. %, 3H-SR141716A” value stood at 85.8% at CB1 receptor (setting [6]) and 86.9% at human CB1 receptor. In addition, the “Max. Disp. %, 3H-WIN55212-2” value on CB1 receptor (setting [11]) is on record as 68.6%; at human CB1 receptor, 28.3%. Further, in assay [1] (EC50, GTP-γ-[35S] in Whole Rat Brain, whole rat brain membranes, inverse agonist/antagonist activity), the pEC50 is 3.53. The Emax in assay [1] is -20.1%.
For `CCOC(=O)c1nn(-c2ccc(Cl)cc2Cl)c(-c2ccc(Cl)cc2)c1C` [SH9631-56], the pKi is 7.50 on CB1 receptor (setting [3]); 7.54 at CB1 receptor (setting [4]); 7.35 on human CB1 receptor (read-out: Ki, displacement of 3H-CP55940); 5.36 at human CB2 receptor (setting [7]). Also, the “Max. Disp. %, 3H-CP55940” value on CB1 receptor (setting [5]) stood at 91.7%; on human CB1 receptor (human CB1 transfected cells, radioligand 3H-CP55940, Table 3) it was 91.0%; at human CB2 receptor (human CB2 transfected cells), 51.4%. For the same molecule, the “Max. Disp. %, 3H-SR141716A” value on CB1 receptor (setting [6]) worked out at 96.9%. Besides, the pEC50 in assay [2] is 6.71. Also, the “Emax, GTP-γ-[35S]” value in assay [2] (percent change from basal) was −18.4^c.
As to `Cc1c(C(=O)NN2CCCCC2)nn(-c2ccc(Cl)cc2Cl)c1-c1ccc(Cl)cc1` [SR141716A], the “Ki for CB1 lower than for CB2” value at CB1 and CB2 receptors (selectivity for the CB1 over the CB2 receptor) is reported as “over 50 fold”.
